Source: patent US11802111B2, “Cyclobutyl amide monoacylglycerol lipase modulators” (Janssen Pharmaceutica NV, priority 2020, dated 2023)

target: human MGL from HeLa cells (Homo sapiens (Human), UniProt Q99685); assay: MGL in vitro activity assay ([glycerol-1,3-3H]-oleoyl glycerol hydrolysis, activated carbon filtration); format: biochemical; details: 300 nM [Glycerol-1,3-3H]-oleoyl glycerol, one hour
Method in brief: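 Endogenous human MGL in HeLa cells/homogenates incubated 1 h with test compounds and 300 nM [glycerol-1,3-3H]-oleoyl glycerol. Released 3H-glycerol passing an activated carbon filter counted as activity; screening at 10 μM compound, top IC50 concentration set empirically.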

human MGL from HeLa cells, sequence (Q99685 whole entry): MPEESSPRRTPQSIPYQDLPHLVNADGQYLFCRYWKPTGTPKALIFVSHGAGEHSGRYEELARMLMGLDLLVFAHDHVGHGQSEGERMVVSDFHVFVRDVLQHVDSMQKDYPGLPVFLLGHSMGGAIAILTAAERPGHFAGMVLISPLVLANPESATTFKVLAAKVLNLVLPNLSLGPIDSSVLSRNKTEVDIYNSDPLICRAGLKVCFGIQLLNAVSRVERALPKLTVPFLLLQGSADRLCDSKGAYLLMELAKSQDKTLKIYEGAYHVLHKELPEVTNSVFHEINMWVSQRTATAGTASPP

Row | SMILES | IC50 [nM]
1 | Cc1ccc(C(F)(F)F)c(CC2CC3(C2)CN(C(=O)[C@H]2C[C@@](C)(O)C2)C3)c1 [Example 211, ((1s,3s)-3-Hydroxy-3-methylcyclobutyl)(6-(5-methyl-2-(trifluoromethyl)benzyl)-2-azaspiro[3.3]heptan-2-yl)methanone] | 4.1
2 | C[C@]1(O)C[C@@H](C(=O)N2CC3(CCC(c4ncn5ccccc45)C3)C2)C1 (mixture of isomers) [Example 329, (rac)-((1s,3s)-3-Hydroxy-3-methylcyclobutyl)(6-(imidazo[1,5-a]pyridin-1-yl)-2-azaspiro[3.4]octan-2-yl)methanone] | 683
3 | Cc1ccccc1C1CCC2(CC1)CN(C(=O)[C@H]1C[C@@](C)(O)C1)C2 [Example 138, ((1s,3s)-3-Hydroxy-3-methylcyclobutyl)(7-(o-tolyl)-2-azaspiro[3.5]nonan-2-yl)methanone] | 47
4 | Cc1cc(OC2CCC3(CC2)CN(C(=O)[C@H]2C[C@@](C)(O)C2)C3)nc(C)c1C(F)(F)F [Example 465, (7-((4,6-Dimethyl-5-(trifluoromethyl)pyridin-2-yl)oxy)-2-azaspiro[3.5]nonan-2-yl)((1s,3s)-3-hydroxy-3-methylcyclobutyl)methanone] | 2.7
5 | Cn1ncc2cccc(CC3CC4(C3)CN(C(=O)[C@H]3C[C@@](C)(O)C3)C4)c21 [Example 299, ((1s,3s)-3-Hydroxy-3-methylcyclobutyl)(6-((1-methyl-1H-indazol-7-yl)methyl)-2-azaspiro[3.3]heptan-2-yl)methanone] | 70
6 | COc1cccc(C2CCC3(C2)CN(C(=O)[C@H]2C[C@@](C)(O)C2)C3)c1F (mixture of isomers) [Example 79, (rac)-(6-(2-Fluoro-3-methoxyphenyl)-2-azaspiro[3.4]octan-2-yl)((1s,3s)-3-hydroxy-3-methylcyclobutyl)methanone] | 242
7 | C[C@]1(O)C[C@@H](C(=O)N2CC3(CC(Cc4cccc(C(F)(F)F)c4)C3)C2)C1 [Example 193, ((1s,3s)-3-Hydroxy-3-methylcyclobutyl)(6-(3-(trifluoromethyl)benzyl)-2-azaspiro[3.3]heptan-2-yl)methanone] | 5.8
8 | C[C@]1(O)C[C@@H](C(=O)N2CC3(CCC(c4cc(C5CC5)ccc4F)C3)C2)C1 (mixture of isomers) [Example 81, (rac)-(6-(5-Cyclopropyl-2-fluorophenyl)-2-azaspiro[3.4]octan-2-yl)((1s,3s)-3-hydroxy-3-methylcyclobutyl)methanone] | 20
9 | C[C@]1(O)C[C@@H](C(=O)N2CC3(CCC(c4cccn5nccc45)C3)C2)C1 (mixture of isomers) [Example 324, (rac)-((1s,3s)-3-Hydroxy-3-methylcyclobutyl)(6-(pyrazolo[1,5-c]pyridin-4-yl)-2-azaspiro[3.4]octan-2-yl)methanone] | 835
10 | CC(c1cccc2ccnn12)C1CC2(C1)CN(C(=O)[C@H]1C[C@@](C)(O)C1)C2 (mixture of isomers) [Example 316, (rac)-((1s,3s)-3-Hydroxy-3-methylcyclobutyl)(6-(1-(pyrazolo[1,5-a]pyridin-7-yl)ethyl)-2-azaspiro[3.3]heptan-2-yl)methanone] | 49
11 | C[C@]1(O)C[C@@H](C(=O)N2CC3(CCC(Oc4ccc(C5CC5)cc4)CC3)C2)C1 [Example 261, (7-(4-Cyclopropylphenoxy)-2-azaspiro[3.5]nonan-2-yl)((1s,3s)-3-hydroxy-3-methylcyclobutyl)methanone] | 7.2
12 | C[C@]1(O)C[C@@H](C(=O)N2CC3(CCC(Oc4cc(C(F)(F)F)ccn4)CC3)C2)C1 [Example 418, ((1s,3s)-3-Hydroxy-3-methylcyclobutyl)(7-((4-(trifluoromethyl)pyridin-2-yl)oxy)-2-azaspiro[3.5]nonan-2-yl)methanone] | 180
13 | C[C@]1(O)C[C@@H](C(=O)N2CC3(CC(Cc4ccccc4C(F)(F)F)C3)C2)C1 [Example 199, ((1s,3s)-3-Hydroxy-3-methylcyclobutyl)(6-(2-(trifluoromethyl)benzyl)-2-azaspiro[3.3]heptan-2-yl)methanone] | 4.1
14 | CCc1ccccc1CC1CC2(C1)CN(C(=O)[C@H]1C[C@@](C)(O)C1)C2 [Example 158, (6-(2-Ethylbenzyl)-2-azaspiro[3.3]heptan-2-yl)((1s,3s)-3-hydroxy-3-methylcyclobutyl)methanone] | 9.2
15 | C[C@]1(O)C[C@@H](C(=O)N2CC3(CC(Cc4ccc5ccnn5c4)C3)C2)C1 [Example 284, ((1s,3s)-3-Hydroxy-3-methylcyclobutyl)(6-(pyrazolo[1,5-c]pyridin-6-ylmethyl)-2-azaspiro[3.3]heptan-2-yl)methanone] | 122
16 | CCOc1cc(C2CCC3(CC2)CN(C(=O)[C@H]2C[C@@](C)(O)C2)C3)ccc1C [Example 360, (7-(3-Ethoxy-4-methylphenyl)-2-azaspiro[3.5]nonan-2-yl)((1s,3s)-3-hydroxy-3-methylcyclobutyl)methanone] | 36
17 | C[C@]1(O)C[C@@H](C(=O)N2CC3(CC[C@H](c4cccc(C5CC5)c4F)C3)C2)C1 (stereo in doubt) [Example 26, ((*S)-6-(3-Cyclopropyl-2-fluorophenyl)-2-azaspiro[3.4]octan-2-yl)((1s,3*R)-3-hydroxy-3-methylcyclobutyl)methanone] | 28
18 | C[C@]1(O)C[C@@H](C(=O)N2CC3(CCC(c4cc5ccccn5n4)CC3)C2)C1 [Example 388, ((1s,3s)-3-Hydroxy-3-methylcyclobutyl)(7-(pyrazolo[1,5-c]pyridin-2-yl)-2-azaspiro[3.5]nonan-2-yl)methanone] | 198
19 | CN(C)c1cc(C2CCC3(CC2)CN(C(=O)[C@H]2C[C@@](C)(O)C2)C3)cc(C(F)(F)F)c1 [Example 123, (7-(3-(Dimethylamino)-5-(trifluoromethyl)phenyl)-2-azaspiro[3.5]nonan-2-yl)((1s,3s)-3-hydroxy-3-methylcyclobutyl)methanone] | 27

Second part, the molecule after the results:

Row | IC50 [nM] | SMILES
20 | 59 | CC(C)c1cccc(C2CCC3(C2)CN(C(=O)[C@H]2C[C@](O)(C(F)(F)F)C2)C3)c1 (mixture of isomers) [Example 88, (rac)-((1s,3s)-3-Hydroxy-3-(trifluoromethyl)cyclobutyl)(6-(3-isopropylphenyl)-2-azaspiro[3.4]octan-2-yl)methanone]
21 | 11 | Cc1cccc(CC2CC3(C2)CN(C(=O)[C@H]2C[C@@](C)(O)C2)C3)c1C [Example 156, (6-(2,3-Dimethylbenzyl)-2-azaspiro[3.3]heptan-2-yl)((1s,3s)-3-hydroxy-3-methylcyclobutyl)methanone]
22 | 311 | C[C@]1(O)C[C@@H](C(=O)N2CC3(CCC(Cn4ccc5cccnc54)CC3)C2)C1 [Example 400, (7-((1H-Pyrrolo[2,3-b]pyridin-1-yl)methyl)-2-azaspiro[3.5]nonan-2-yl)((1s,3s)-3-hydroxy-3-methylcyclobutyl)methanone]
23 | 37 | C[C@]1(O)C[C@@H](C(=O)N2CC3(CC(c4cccc(C5CC5)c4)C3)C2)C1 [Example 20, (6-(3-Cyclopropylphenyl)-2-azaspiro[3.3]heptan-2-yl)((1s,3s)-3-hydroxy-3-methylcyclobutyl)methanone]
24 | 6.4 | Cc1ccc(CC2CC3(C2)CN(C(=O)[C@H]2C[C@@](C)(O)C2)C3)c(F)c1 [Example 230, (6-(2-Fluoro-4-methylbenzyl)-2-azaspiro[3.3]heptan-2-yl)((1s,3s)-3-hydroxy-3-methylcyclobutyl)methanone]
25 | 8850 | Cn1cc(C2CCC3(C2)CN(C(=O)[C@H]2C[C@@](C)(O)C2)C3)c(C(F)(F)F)n1 (mixture of isomers) [Example 100, (rac)-((1s,3s)-3-Hydroxy-3-methylcyclobutyl)(6-(1-methyl-3-(trifluoromethyl)-1H-pyrazol-4-yl)-2-azaspiro[3.4]octan-2-yl)methanone]
26 | 13 | C[C@]1(O)C[C@@H](C(=O)N2CC3(CCC(Oc4ncc(C(F)(F)F)cc4F)CC3)C2)C1 [Example 457, (7-((3-Fluoro-5-(trifluoromethyl)pyridin-2-yl)oxy)-2-azaspiro[3.5]nonan-2-yl)((1s,3s)-3-hydroxy-3-methylcyclobutyl)methanone]
27 | 0.4 | Cc1cc(OC2CCC3(CC2)CN(C(=O)[C@H]2C[C@@](C)(O)C2)C3)ccc1C(F)(F)F [Example 239, ((1s,3s)-3-Hydroxy-3-methylcyclobutyl)(7-(3-methyl-4-(trifluoromethyl)phenoxy)-2-azaspiro[3.5]nonan-2-yl)methanone]
28 | 130 | Cc1nc(OC2CC3(C2)CN(C(=O)[C@H]2C[C@@](C)(O)C2)C3)ccc1C(F)(F)F [Example 309, ((1s,3s)-3-Hydroxy-3-methylcyclobutyl)(6-((6-methyl-5-(trifluoromethyl)pyridin-2-yl)oxy)-2-azaspiro[3.3]heptan-2-yl)methanone]
29 | 3.5 | COc1ccc(CC2CC3(C2)CN(C(=O)[C@H]2C[C@@](C)(O)C2)C3)c(C(F)(F)F)c1 [Example 217, ((1s,3s)-3-Hydroxy-3-methylcyclobutyl)(6-(4-methoxy-2-(trifluoromethyl)benzyl)-2-azaspiro[3.3]heptan-2-yl)methanone]
30 | 33 | C[C@@H](c1ccccc1)C1CC2(C1)CN(C(=O)[C@H]1C[C@@](C)(O)C1)C2 (stereo in doubt) [Example 310, ((1s,3*S)-3-Hydroxy-3-methylcyclobutyl)(6-((*R)-1-phenylethyl)-2-azaspiro[3.3]heptan-2-yl)methanone]
31 | 47 | Cc1ccc(OC2CCC3(CC2)CN(C(=O)[C@H]2C[C@@](C)(O)C2)C3)nc1C [Example 428, (7-((5,6-Dimethylpyridin-2-yl)oxy)-2-azaspiro[3.5]nonan-2-yl)((1s,3s)-3-hydroxy-3-methylcyclobutyl)methanone]
32 | 9.7 | C[C@]1(O)C[C@@H](C(=O)N2CC3(CC[C@H](c4ccc(C5CC5)cc4)C3)C2)C1 [Example 50, ((S)-6-(4-Cyclopropylphenyl)-2-azaspiro[3.4]octan-2-yl)((1s,3R)-3-hydroxy-3-methylcyclobutyl)methanone]
